Measured values published in US4425350A, “5,6,6a,7-Tetrahydro-4H-dibenz(de,g)-isoquinoline derivatives, and their use for treating central nervous system disorders” (Warner-Lambert Company, priority 1980, dated 1984).

Columns and labels:
[1] = Prolongation of evipan sodium narcosis; type: in vivo
Source text: 3. Prolongation of evipan sodium narcosis, Arch. Int. Pharmacodyn; 126, pgs. 219-227 (1960).

[2] = Acute toxicity (LD50), intragastral administration, male mice; conditions: mouse, in vivo, po
rats = test: Behavioural test in rats, modified after Irwin; type: in vivo
Source text: 2. Behavioural test in rats, modified after Irwin, Psychopharmacologica. (Berl.); 13, pgs. 222-257 (1968).

dogs = test: Alphalysis (alphalytic activity) in dogs; type: in vivo; conditions: for alphalytic activity: from 1 mg./kg. i.v.
Procedure: 4. Alphalysis, Medizinische Wochenschrift; 81, pg. 352 (1951).
The alphalytic activity of the compounds of Examples 8 and 9 was tested on dogs.

Structure (SMILES)	prolongation of the sleeping time in % ([1]; dosage 50 mg./kg.)	prolongation of the sleeping time in % ([1]; dosage 100 mg./kg.)	LD50 [2]	catatonia (rats; 150 mg./kg.)	lowering of the body temperature (rats; 150 mg./kg.)	ptosis (rats; 150 mg./kg.)	sedation (rats; 150 mg./kg.)	catatonia (rats; 300 mg./kg.)	lowering of the body temperature (rats; 300 mg./kg.)	muscle tonus (rats; 300 mg./kg.)	ptosis (rats; 300 mg./kg.)	sedation (rats; 300 mg./kg.)	alphalytic activity (dogs)	alphalytic action after intraduodenal administration (dogs; intraduodenal)	behaviour (change of symptoms versus 150 mg./kg.) (rats; 300 mg./kg., symptoms at 150 mg./kg.: sedation, catatonia, lowering of the body temperature)	muscle tonus (rats; 150 mg./kg.)
COc1cc2c(cc1OC)-c1c(OC)c(OC)cc3c1C(CNC3)C2 (racemic) [Example 7, (±)-5,6,6a,7-Tetrahydro-1,2,9,10-tetramethoxy-4H-dibenz(de,g)isoquinolin]	147%	324%	~600 mg/kg	catatonia	lowering of the body temperature	ptosis	sedation									
COc1cc2c(cc1OC)-c1c(OC)c(OC)cc3c1C(C2)CN(C)C3 (racemic) [Example 8, (±)-5,6,6a,7-Tetrahydro-1,2,9,10-tetramethoxy-5-methyl-4H-dibenz(de,g)isoquinoline]	64%		800 mg/kg					catatonia	lowering	reduced muscle tonus	ptosis	sedation	a distinct alphalytic activity is detectable	the action could also be confirmed after intraduodenal administration		
COc1cc2c3c(c1OC)CN(C)CC3Cc1cc3c(cc1-2)OCO3 (racemic) [Example 9, (±)-5,6,6a,7-tetrahydro-2,3-dimethoxy-9,10-methylenedioxy-5-methyl-4H-dibenz(de,g)isoquinoline]	339%	417%	~1200 mg/kg	catatonia	lowering		sedation						a distinct alphalytic activity is detectable		strengthening of the symptoms	
COc1cc2c(cc1OC)-c1cc(OC)c(OC)c3c1C(C2)CN(C)C3 (racemic) [Example 10, (±)-5,6,6a,7-Tetrahydro-2,3,9,10-tetramethoxy-5-methyl-4H-dibenz(de,g)isoquinoline]	268%	347%	~1200 mg/kg	catatonia			sedation									reduced muscle tonus
